In one data set the target is T1, CYP2C9 (Homo sapiens, UniProt P11712).
T1 construct: A system of 100 μL human liver microsomes; from tissue; host or cells: human liver microsomes
Description: Direct inhibition (DI) of CYP2C9 in human liver microsomes. Type of data set: in vitro ADME. To be noted: probe Diclofenac, human liver microsomes 0.2 mg/mL, 10 μM compound, read-out: Direct inhibition (DI) 2C9 (Diclofenac). In outline:
(§1)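 Pooled human liver microsomes (0.2 mg/mL) with 1 mM NADPH and 10 μM test compound were incubated for 20 min with a mixed probe-substrate cocktail (midazolam 10 μM, testosterone 100 μM, dextromethorphan 10 μM, diclofenac 20 μM, phenacetin 100 μM, mephenytoin 100 μM). Relative enzyme activity came from metabolite formation versus DMSO control.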
For orientation: Liver microsomes are vesicles of endoplasmic reticulum, rich in cytochrome P450 enzymes.

A further data set concerns the target T2, CYP2D6 (Homo sapiens, UniProt P10635).
T2 construct: A system of 100 μL human liver microsomes; from tissue; host or cells: human liver microsomes
Description: Direct inhibition (DI) of CYP2D6 in human liver microsomes. Format: in vitro ADME. To be noted: probe Dextromethorphan, human liver microsomes 0.2 mg/mL, 10 μM compound, read-out: Direct inhibition (DI) 2D6 (Dextromethorphan). The gist of the method:
as §1

Another data set deals with T3, CYP1A2 (Homo sapiens, UniProt P05177).
T3 construct: A system of 100 μL human liver microsomes; from tissue; host or cells: human liver microsomes
T3 sequence (P05177 1-516): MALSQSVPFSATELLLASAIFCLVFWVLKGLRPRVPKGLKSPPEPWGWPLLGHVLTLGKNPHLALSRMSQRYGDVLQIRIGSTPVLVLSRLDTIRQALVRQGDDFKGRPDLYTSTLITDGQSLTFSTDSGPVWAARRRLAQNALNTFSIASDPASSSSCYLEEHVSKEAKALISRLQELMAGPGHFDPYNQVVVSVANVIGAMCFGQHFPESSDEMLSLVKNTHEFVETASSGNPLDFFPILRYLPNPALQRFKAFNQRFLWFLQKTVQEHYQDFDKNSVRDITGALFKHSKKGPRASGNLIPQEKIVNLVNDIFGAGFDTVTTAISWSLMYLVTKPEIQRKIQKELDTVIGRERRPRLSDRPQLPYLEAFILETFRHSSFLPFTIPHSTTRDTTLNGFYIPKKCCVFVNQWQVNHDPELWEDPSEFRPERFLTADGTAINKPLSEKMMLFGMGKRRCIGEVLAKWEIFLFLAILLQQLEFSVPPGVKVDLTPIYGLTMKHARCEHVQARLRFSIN
Put plainly: Direct inhibition (DI) of CYP1A2 in human liver microsomes. Format: in vitro ADME. To be noted: probe Phenacetin, human liver microsomes 0.2 mg/mL, 10 μM compound, read-out: Direct inhibition (DI) 1A2 (Phenacetin). In outline: as §1

The next data set concerns the target T4, ErbB2 kinase (Homo sapiens, UniProt P04626).
T4 construct: The final concentration of ErbB2 kinase was 0.06 ng/μL
Put plainly: EGFR/ErbB2 enzymatic experiment (HTRF kinEASE-TK), ErbB2. Format: biochemical. To be noted: ErbB2 kinase 0.06 ng/μL, ATP 4 μM; read-out: Kinase IC50 (nM) in vitro ErbB2. For orientation: TR-FRET usually uses a lanthanide donor and a delayed reading to cut background.

The next data set addresses T5, CYP3A4 (Homo sapiens, UniProt P08684).
T5 construct: A system of 100 μL human liver microsomes; from tissue; host or cells: human liver microsomes
Description: Direct inhibition (DI) of CYP3A4 in human liver microsomes. Format: in vitro ADME. To be noted: human liver microsomes 0.2 mg/mL, 10 μM compound. In outline:
as §1

Data set [1] deals with BT-474 (human breast cancer cell). Put plainly: In vitro proliferation inhibition assay of cell lines (CellTiter-Glo), BT-474. Type of data set: cell-based. To be noted: BT-474 cells, 72 hours. The gist of the method:
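Cells were exposed to nine compound concentrations in duplicate for 72 h at 37 °C and 5% CO2. Viability was read with CellTiter-Glo reagent after equilibration at room temperature.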
(In general: ATP-based viability assays read luminescence as a measure of living cells.)

For another data set, the target named is EGFR kinase (Homo sapiens, UniProt P00533). Description: EGFR/ErbB2 enzymatic experiment (HTRF kinEASE-TK), EGFR. Type of data set: biochemical. To be noted: EGFR kinase 0.06 units/μL, ATP 1.65 μM; read-out: Kinase IC50 (nM) in vitro EGFR.
Chain of EGFR kinase (P00533 25-1210): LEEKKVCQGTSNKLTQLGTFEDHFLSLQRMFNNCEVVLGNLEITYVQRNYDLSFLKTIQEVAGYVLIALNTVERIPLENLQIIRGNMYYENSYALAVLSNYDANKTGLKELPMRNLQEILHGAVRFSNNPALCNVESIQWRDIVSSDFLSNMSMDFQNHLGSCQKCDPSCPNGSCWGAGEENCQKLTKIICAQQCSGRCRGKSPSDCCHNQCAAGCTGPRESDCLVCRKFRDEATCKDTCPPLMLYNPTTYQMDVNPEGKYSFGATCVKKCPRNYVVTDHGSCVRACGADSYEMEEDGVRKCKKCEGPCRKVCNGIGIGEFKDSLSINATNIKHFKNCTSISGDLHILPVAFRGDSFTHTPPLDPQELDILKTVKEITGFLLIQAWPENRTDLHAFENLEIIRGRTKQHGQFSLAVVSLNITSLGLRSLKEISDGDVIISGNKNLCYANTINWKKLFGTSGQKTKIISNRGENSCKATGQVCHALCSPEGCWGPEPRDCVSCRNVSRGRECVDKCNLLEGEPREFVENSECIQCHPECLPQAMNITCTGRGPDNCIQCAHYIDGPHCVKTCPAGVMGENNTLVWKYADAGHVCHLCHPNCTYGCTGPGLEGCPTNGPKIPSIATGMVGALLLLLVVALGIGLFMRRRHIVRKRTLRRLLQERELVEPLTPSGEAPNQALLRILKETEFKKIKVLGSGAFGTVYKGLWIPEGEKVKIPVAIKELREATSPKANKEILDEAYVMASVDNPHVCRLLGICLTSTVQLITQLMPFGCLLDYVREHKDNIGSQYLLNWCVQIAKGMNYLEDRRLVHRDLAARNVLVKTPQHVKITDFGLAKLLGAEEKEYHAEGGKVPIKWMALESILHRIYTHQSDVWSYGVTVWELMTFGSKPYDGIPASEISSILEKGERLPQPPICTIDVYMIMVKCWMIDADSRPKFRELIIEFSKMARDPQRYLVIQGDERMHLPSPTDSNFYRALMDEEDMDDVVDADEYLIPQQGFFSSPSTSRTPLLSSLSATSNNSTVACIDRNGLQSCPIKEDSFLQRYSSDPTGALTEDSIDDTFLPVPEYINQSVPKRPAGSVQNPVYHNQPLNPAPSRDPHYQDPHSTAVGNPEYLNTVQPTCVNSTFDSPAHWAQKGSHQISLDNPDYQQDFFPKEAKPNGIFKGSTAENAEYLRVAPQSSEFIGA
In data set [2] the test system is N87 (human gastric cancer cell NCI-N87). Description: In vitro proliferation inhibition assay of cell lines (CellTiter-Glo), N87. To be noted: N87 cells, 72 hours. Type of data set: cell-based. The gist of the method: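 Cells seeded overnight (BT-474 8.8×10^4 cells/mL, N87 6.6×10^4 cells/mL), then exposed to 9 compound concentrations in duplicate for 72 hours at 37° C, 5% CO2. Viability read by CellTiter-Glo luminescence.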

A further data set concerns the target T6, CYP2C19 (Homo sapiens, UniProt P33261).
T6 construct: A system of 100 μL human liver microsomes; from tissue; host or cells: human liver microsomes
Put plainly: Direct inhibition (DI) of CYP2C19 in human liver microsomes. To be noted: probe Mephenytoin, human liver microsomes 0.2 mg/mL, 10 μM compound, read-out: Direct inhibition (DI) 2C19 (Mephenytoin). Format: in vitro ADME. The gist of the method: as §1

Data set [3] deals with HER2 overexpressing human gastric cancer NCI-N87 nude mice xenograft. Description: HER2 overexpressing human gastric cancer NCI-N87 nude mice xenograft model. Type of data set: in vivo. To be noted: 10 mg/kg, continuous oral administration for 21 days. An excerpt:
We have established nude mice xenograft model for HER2 overexpression.

A short description of data set [4]: In vivo pharmacokinetics study in beagle dogs. To be noted: beagle dogs, oral 15 mg/kg. The method, then:
6 male beagle dogs (purchased from Beijing Marshall Biotechnology Co., Ltd., certificate No. SCXK (Beijing) 2016-0001) were divided into 2 groups with 3 dogs in each group, and all of the animals were fasted for about 12 hours before administration. One group was orally administrated with 15 mg/kg of the final product of Embodiment 22 (deionized water was added, followed by sonication for 29 minutes and stirring for 4 minutes, and a clear pale yellow dosing solution with a concentration of 3 mg/mL was prepared); the other group was orally administrated with 15 mg/kg of Pyrotinib (deionized water was added, followed by sonication for 28 minutes and stirring for 5 minutes, and a clear yellow dosing solution with a concentration of 3 mg/mL was prepared). Blood samples were collected before administration and at 15, 30, 60, 90, 120, 150, 180, 240, 360, 480, 720 and 1440 minutes respectively after administration.
(§2) 1.0 mL of blood was collected from each animal through jugular vein puncture at each time point and heparin sodium was used for anticoagulation. The blood samples were collected and placed in labeled centrifuge tubes, and plasma was centrifuged (centrifugation conditions: 3500 rpm, 10 minutes, 2-8° C.). To 50 μL of plasma sample was added 300 μL of acetonitrile containing internal standard (Propranolol, 25 ng/mL) to precipitate the protain. After vortexing for 10 minutes and centrifuging at 6000 g for 20 minutes, 100 μL of supernatant was taken and injected into a 96-well plate. The drug concentration in plasma was determined by UPLC/MS-MS.

Data set [5] is described as follows: In vivo pharmacokinetics study in cynomolgus monkeys. To be noted: cynomolgus monkeys, oral 15 mg/kg. The method, then: 6 male cynomolgus monkeys (purchased from Guangxi Guidong Primate Development Experiment Co., Ltd., certificate No. SCXK (Guangxi) 2013-0057) were divided into 2 groups with 3 in each group, and all of the animals were fasted for about 12 hours before administration. One group was orally administrated with 15 mg/kg of the final product of Embodiment 22 (deionized water was added, followed by sonication for 30 minutes and stirring for 3 minutes, and a clear pale yellow dosing solution with a concentration of 3 mg/mL was prepared); one group was administrated with 15 mg/kg of Pyrotinib (deionized water was added, followed by sonication for 30 minutes and stirring for 4 minutes, and a clear yellow dosing solution with a concentration of 3 mg/mL was prepared). Blood samples were collected before administration and at 15, 30, 60, 90, 120, 150, 180, 240, 360, 480, 720 and 1440 minutes respectively after administration.
as §2

The mark [6] stands for this setting: probe Midazolam, read-out: Direct inhibition (DI) 3A4 (Midazolam).
Setting [7] is: probe Testosterone, read-out: Direct inhibition (DI) 3A4 (testosterone).

Where two headings read alike, the source gives them in different places.

T1 sequence (P11712 whole entry): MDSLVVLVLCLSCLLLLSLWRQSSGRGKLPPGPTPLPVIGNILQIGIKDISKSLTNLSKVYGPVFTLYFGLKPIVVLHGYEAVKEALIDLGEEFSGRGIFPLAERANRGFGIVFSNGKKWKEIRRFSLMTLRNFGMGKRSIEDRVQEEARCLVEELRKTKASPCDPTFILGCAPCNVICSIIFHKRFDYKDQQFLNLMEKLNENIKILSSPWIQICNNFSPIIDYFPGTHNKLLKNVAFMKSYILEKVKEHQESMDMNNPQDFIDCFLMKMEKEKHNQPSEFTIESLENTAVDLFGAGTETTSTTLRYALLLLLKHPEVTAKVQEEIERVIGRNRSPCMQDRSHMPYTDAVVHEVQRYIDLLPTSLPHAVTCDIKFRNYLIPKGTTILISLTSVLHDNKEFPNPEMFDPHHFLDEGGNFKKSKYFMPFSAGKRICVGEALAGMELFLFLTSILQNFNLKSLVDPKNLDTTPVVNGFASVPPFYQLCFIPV
T5 sequence (P08684 whole entry): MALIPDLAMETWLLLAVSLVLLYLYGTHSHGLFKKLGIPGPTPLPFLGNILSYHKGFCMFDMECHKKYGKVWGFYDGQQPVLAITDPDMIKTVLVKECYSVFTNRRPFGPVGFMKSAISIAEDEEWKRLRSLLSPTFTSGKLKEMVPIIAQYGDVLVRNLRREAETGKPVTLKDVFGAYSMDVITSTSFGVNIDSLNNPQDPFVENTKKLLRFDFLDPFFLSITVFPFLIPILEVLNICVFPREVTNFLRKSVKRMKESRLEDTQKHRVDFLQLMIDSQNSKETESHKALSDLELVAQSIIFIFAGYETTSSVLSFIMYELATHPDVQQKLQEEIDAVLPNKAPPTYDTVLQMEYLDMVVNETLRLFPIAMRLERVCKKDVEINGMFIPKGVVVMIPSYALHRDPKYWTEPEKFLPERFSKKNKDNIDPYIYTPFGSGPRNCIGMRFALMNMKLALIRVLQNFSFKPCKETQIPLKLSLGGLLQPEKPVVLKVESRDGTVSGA
T6 sequence (P33261 whole entry): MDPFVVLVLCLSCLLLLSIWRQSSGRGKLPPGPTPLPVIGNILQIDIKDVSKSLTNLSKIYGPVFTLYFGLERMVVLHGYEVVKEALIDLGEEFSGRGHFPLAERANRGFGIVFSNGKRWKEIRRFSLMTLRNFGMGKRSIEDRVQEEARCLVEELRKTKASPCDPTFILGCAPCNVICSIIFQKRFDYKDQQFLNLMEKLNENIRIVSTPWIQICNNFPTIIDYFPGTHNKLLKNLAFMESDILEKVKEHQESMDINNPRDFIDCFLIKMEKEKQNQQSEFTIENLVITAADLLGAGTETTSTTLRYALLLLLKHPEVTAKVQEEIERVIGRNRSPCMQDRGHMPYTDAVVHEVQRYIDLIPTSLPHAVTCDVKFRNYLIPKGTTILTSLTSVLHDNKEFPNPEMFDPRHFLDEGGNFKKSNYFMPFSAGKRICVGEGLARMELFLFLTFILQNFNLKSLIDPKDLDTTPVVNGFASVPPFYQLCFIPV
T4 sequence (P04626 23-1255): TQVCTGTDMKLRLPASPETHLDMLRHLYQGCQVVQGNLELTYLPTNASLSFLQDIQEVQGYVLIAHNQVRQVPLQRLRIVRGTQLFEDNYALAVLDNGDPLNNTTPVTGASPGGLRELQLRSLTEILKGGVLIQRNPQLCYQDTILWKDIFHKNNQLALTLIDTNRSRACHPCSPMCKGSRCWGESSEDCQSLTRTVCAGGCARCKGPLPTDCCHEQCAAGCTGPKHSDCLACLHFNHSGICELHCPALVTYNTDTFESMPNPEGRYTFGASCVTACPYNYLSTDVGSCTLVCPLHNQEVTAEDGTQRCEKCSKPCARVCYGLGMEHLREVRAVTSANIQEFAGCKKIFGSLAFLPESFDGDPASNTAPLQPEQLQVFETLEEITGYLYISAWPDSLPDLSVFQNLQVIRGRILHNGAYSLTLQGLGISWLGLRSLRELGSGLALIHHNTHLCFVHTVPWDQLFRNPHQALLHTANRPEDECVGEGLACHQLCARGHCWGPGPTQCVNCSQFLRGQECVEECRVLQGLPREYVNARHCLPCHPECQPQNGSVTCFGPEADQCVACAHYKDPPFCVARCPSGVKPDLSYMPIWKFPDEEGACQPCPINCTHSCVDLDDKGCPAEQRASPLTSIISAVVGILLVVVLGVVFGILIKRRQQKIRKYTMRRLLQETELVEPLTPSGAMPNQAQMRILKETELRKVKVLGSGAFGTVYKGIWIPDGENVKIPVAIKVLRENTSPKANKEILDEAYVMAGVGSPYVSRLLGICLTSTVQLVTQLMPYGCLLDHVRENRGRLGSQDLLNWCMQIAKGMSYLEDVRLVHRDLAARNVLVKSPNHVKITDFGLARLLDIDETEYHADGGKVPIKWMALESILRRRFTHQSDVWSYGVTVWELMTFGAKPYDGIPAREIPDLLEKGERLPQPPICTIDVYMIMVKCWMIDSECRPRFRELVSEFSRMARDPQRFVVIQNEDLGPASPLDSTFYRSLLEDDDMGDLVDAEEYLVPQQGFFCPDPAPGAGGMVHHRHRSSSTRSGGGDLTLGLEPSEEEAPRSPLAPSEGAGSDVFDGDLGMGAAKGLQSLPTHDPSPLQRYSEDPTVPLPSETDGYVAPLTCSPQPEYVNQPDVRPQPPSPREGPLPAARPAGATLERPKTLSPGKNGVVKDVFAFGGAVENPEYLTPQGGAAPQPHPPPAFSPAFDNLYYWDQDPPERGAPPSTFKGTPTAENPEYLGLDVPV
T2 sequence (P10635 whole entry): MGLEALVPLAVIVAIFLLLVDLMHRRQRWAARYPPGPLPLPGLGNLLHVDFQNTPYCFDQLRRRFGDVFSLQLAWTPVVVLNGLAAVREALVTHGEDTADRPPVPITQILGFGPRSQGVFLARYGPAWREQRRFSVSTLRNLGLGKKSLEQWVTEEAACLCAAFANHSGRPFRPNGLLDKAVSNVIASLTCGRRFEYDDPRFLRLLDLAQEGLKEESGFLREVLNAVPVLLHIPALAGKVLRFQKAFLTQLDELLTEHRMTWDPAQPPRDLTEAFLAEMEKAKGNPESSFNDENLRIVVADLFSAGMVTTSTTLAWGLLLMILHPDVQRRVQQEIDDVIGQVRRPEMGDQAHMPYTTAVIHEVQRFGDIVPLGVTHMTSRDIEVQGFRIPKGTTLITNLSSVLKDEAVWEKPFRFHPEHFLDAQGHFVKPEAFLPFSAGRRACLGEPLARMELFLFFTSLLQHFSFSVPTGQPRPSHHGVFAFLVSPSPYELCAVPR

Usually inhibition stands for the percentage by which the read-out fell short of the control. The IC50 is the concentration that inhibits the measured activity by half. Turning to `CCOc1cc2ncc(C#N)c(Nc3ccc(Oc4cc5nncn5cn4)c(C)c3)c2cc1NC(=O)/C=C/[C@H]1CCCN1` [Final product of Embodiment 32], the inhibition at 20 min, 10 µM is 66% on CYP2C9; 6% at CYP2D6; less than 0% on CYP1A2; 8% at CYP3A4 (setting [6]); 11% on CYP3A4 (setting [7]); 75% on CYP2C19. The IC50 on ErbB2 kinase was found to be 3.13 nM; in data set [1] it was 4 nM; at EGFR kinase, 1.06 nM; in [2], 4.2 nM.
Regarding `CCOc1cc2ncc(C#N)c(Nc3ccc(Oc4cc5nncn5cn4)c(C)c3)c2cc1NC(=O)/C=C/[C@H]1CCCN1C` [Final product of Embodiment 33], the inhibition at 20 min, 10 µM is 17% on CYP2C9; 3% on CYP2D6; less than 0% on CYP1A2; 10% on CYP3A4 (setting [6]); 17% on CYP3A4 (setting [7]); 49% at CYP2C19. Moreover, the IC50 came to 3.56 nM on ErbB2 kinase, 4.2 nM in data set [1], 2.14 nM on EGFR kinase and 3.2 nM in data set [2].
Turning to `CCOc1cc2ncnc(Nc3ccc(Oc4ccn5ncnc5c4)c(C)c3)c2cc1NC(=O)/C=C/[C@H]1CCCN1` [Final product of Embodiment 38, (R,E)-N-(4-((4-([1,2,4]triazolo[1,5-a]pyridin-7-yloxy)-3-methylphenyl)amino)-7-ethoxyquinazolin-6-yl)-3-(pyrrolidin-2-yl)acrylamide], the inhibition at 20 min, 10 µM on CYP2C9 was 10%; at CYP2D6, 24%; at CYP1A2, less than 0%; on CYP3A4 (setting [6]) it was 5%; on CYP3A4 (setting [7]), 16%; on CYP2C19, 45%. In addition, the half-maximal inhibitory concentration (IC50) on ErbB2 kinase was 0.5 nM; in [1], 2.8 nM; on EGFR kinase, 0.6 nM; in data set [2], 2.4 nM.
Consider `Cc1cc(Nc2ncnc3ccc(NC(=O)/C=C/[C@H]4CCCN4C)cc23)ccc1Oc1cc2nccn2cn1` [Final product of Embodiment 41], for which the inhibition at 20 min, 10 µM at CYP2C9 is less than 0%; at CYP2D6 it was 71%; at CYP1A2 it was less than 0%; on CYP3A4 (setting [6]) it was less than 0%; on CYP3A4 (setting [7]), 6%; at CYP2C19, 1%. The half-maximal inhibitory concentration (IC50) at ErbB2 kinase was 0.6 nM; in data set [1], 3.9 nM; on EGFR kinase it was 0.6 nM; in [2] it was 8.5 nM.
Consider `Cc1cc(Nc2ncnc3ccc(NC(=O)/C(F)=C/[C@H]4CCCN4C)cc23)ccc1Oc1cc2nncn2cn1` [Final product of Embodiment 43], for which the inhibition at 20 min, 10 µM was less than 0% on CYP2C9; 69% at CYP2D6; less than 0% at CYP1A2; less than 0% on CYP3A4 (setting [6]); less than 0% on CYP3A4 (setting [7]); less than 0% on CYP2C19. In addition, the IC50 was 2.6 nM at ErbB2 kinase, 1.8 nM in data set [1], 4.7 nM at EGFR kinase and 1.3 nM in data set [2].
Turning to `CCOc1cc2ncnc(Nc3ccc(Oc4ccn5ncnc5c4)c(C)c3)c2cc1NC(=O)/C(F)=C\[C@H]1CCCN1C` [Final product of Embodiment 44], the inhibition at 20 min, 10 µM was 11% at CYP2C9; 36% on CYP2D6; 12% at CYP1A2; less than 0% at CYP3A4 (setting [6]); 13% on CYP3A4 (setting [7]); 27% at CYP2C19. Moreover, the IC50 on ErbB2 kinase was determined as 2.4 nM; in [1], 2 nM; on EGFR kinase, 32.6 nM; in data set [2], 1.2 nM.
In the case of `CCOc1cc2ncnc(Nc3ccc(Oc4ccn5ncnc5c4)c(C)c3)c2cc1NC(=O)/C(F)=C/[C@@H]1CCCN1C` [Final product of Embodiment 47], the inhibition at 20 min, 10 µM at CYP2C9 was determined as 34%; on CYP2D6 it was 54%; on CYP1A2 it was 35%; on CYP3A4 (setting [6]), 33%; on CYP3A4 (setting [7]), 42%; on CYP2C19, 47%. In addition, the 50% inhibitory concentration (IC50) on ErbB2 kinase was found to be 4.2 nM; in [1], 7.1 nM; on EGFR kinase it was 38.5 nM; in [2] it was 3.8 nM.
In the case of `CCOc1cc2ncc(C#N)c(Nc3ccc(OCc4ccccn4)c(Cl)c3)c2cc1NC(=O)/C=C/CN(C)C` [Neratinib, reference compound], the “tumor volume inhibition rate (GI %)” value in data set [3] was 112.5%.
The term AUC denotes concentration integrated over time. With `CCOc1cc2ncc(C#N)c(Nc3ccc(OCc4ccccn4)c(Cl)c3)c2cc1NC(=O)/C=C/[C@H]1CCCN1C` [Pyrotinib, reference compound], the inhibition at 20 min, 10 µM amounted to 26% on CYP2C9; 55% at CYP2D6; 22% at CYP1A2; 15% on CYP3A4 (setting [6]); 22% at CYP3A4 (setting [7]); 43% at CYP2C19. The “peak oral absorption concentration” value in data set [4] amounted to 146.2 ng/mL. Also, the exposure (AUC) amounted to 1620 ng·h/mL in data set [4] (male, dog, plasma, read-out: AUC) and 325 ng·h/mL in [5] (male, cynomolgus monkey, plasma, read-out: AUC). Besides, the “tumor volume inhibition rate (GI %)” value in data set [3] turned out to be 127.0%. Also, in data set [5], the “oral absorption peak concentration” value worked out at 56.42 ng/mL.

The values above are taken from patent publication US11578074B2, “Nitrogenous heterocyclic compound, preparation method, intermediate, composition, and application” (SHANGHAI PHARMACEUTICALS HOLDING CO., LTD., priority 2017, dated 2023).
